Test results taken from article PMC10613275 (Scientific Reports, 2023).
Read-outs that look alike come from different tables or passages of the source. Marks after values point to notes of the source that are not given here.

Experiments:
MCF7 cells = conditions: MCF7 ref 2; cited from earlier work
CHO-K1 cells = assay type: cell-based, Chinese hamster; conditions: for MoA (mean fluorescence values over area of the nuclei): lilial 100 µM, PC 30 μM
Description: Briefly, HeLa and CHO-K1 cells were seeded at a concentration of 1 × 10^5 cells/ml into the 96-well plates. CHO-K1 cells were used for comparison with HPRT test. HeLa cells were recommended by the manufacturer of the kit. After 24 h, cells were rinsed with PBS and cultivation medium (“Cell lines” Section) without ATB, with a reduced content of FBS (5%) was added. 30 µM valinomycin (in DMSO) was used as a positive control Samples were applied in the presence of non-toxic sample concentrations, i.e. 100 µM either with or without S9 mix. […] Cells were photographed using a fluorescence microscope (Olympus IX83); filters: DAPI (500 ms) and Cy3 (500 ms). Bioimage analysis in ImageJ software was performed as described previously.

[1] = system: MCF-7 human breast cancer cells; conditions: cited from earlier work
mouse lymphoma cells = system: mouse lymphoma cells; parameters: method as in earlier work; conditions: cited from earlier work
[2] = system: complexes I and II of the electron transport chain; conditions: cited from earlier work
NIH3T3 cells = conditions: NIH3T3 ref 2; cited from earlier work
[3] = system: S. typhimurium and E. coli, CHO and Chinese hamster V79 cells; conditions: cited from earlier work
CHO-K1 cells (hprt gene) = test: CHO/HPRT mutation assay; assay type: cell-based, Chinese hamster; conditions: for Mutagenicity result: 50 µM without, 500 µM with metabolic activation
Description: The test with metabolic activation was performed as described in the OECD protocol, the ASTM standard[23] and other protocols[30],[31] and publications. For the test, cryopreserved CHO-K1 cells after the mutant cleansing were used. Mutant cleansing was performed according to[30], i.e. cells were cultivated three days in HAT medium, one day in HT medium and then frozen.
One passage after the thawing, 1 × 10^6 cells were seeded in 60 mm cultivation plates as described in[32]. […] The final concentration of the solvent, DMSO, was 1%. […] EMS at final concentration 2 mM as recommended in[31] served as a positive control. 3-MC at final concentration […][22] served as a positive control for metabolic activation. 1% DMSO was used as a VC. Sole cultivation medium served as a negative control (NC). After 4 h, the medium with tested substances was removed, plates were washed with PBS and fresh medium with 10% FBS was added.
During the expression period (1 week), the cells on all 60 mm plates were passaged once. On day 8, cells were trypsinized, resuspended, counted and 2 × 10^5 cells of each plate were seeded on 60 mm plates in triplicates in the presence of a selective agents, 6-TG (30 µM) as described in[32]. […] 300 cells without the selective agent were seeded in a parallel to evaluate plating efficiency (PE). On day 15, the plates were washed with PBS, cells were fixed with ice cold methanol for 10 min and stained with 0.05% crystal violet in water for 30 min[33]. After washing with water, formed colonies were counted using Schuett Count (Schuett-biotec, Göttingen, Germany). Calculations were done as described in[29]. PE was calculated according to a general Eq. 1. Particular PE at selective conditions was calculated according to Eq. 2. Particular PE at non-selective conditions was calculated according to Eq. 3. Mutation frequency (MF) was calculated according to Eq. 4.1 PE=numberofcoloniesformed/numberofcellsplated 2 PEselective=numberofmutantcoloniesNMC/200,000 3 PEnon-selective=numberofcoloniesformed/300 4 MF=PEselectiveconditions/PEnon-selectiveconditions

NRF2-ARE signal pathway = NRF2-ARE signal pathway activation, luciferase reporter in transfected HEK293; assay type: cell-based, human; conditions: HEK293, 100 µM (Table 1), 18 h
From the text: […]. HEK293 cells were transiently transfected with reporter plasmid pGL4.32 (luc2P/NF-κB-RE/Hygro, Promega Corporation, Madison, Wisconsin, USA) or pGL4.37 (luc2P/NRF2-ARE/Hygro) using FuGENE (Promega Corporation). Plasmid pEGFP-C1 carrying the gene for green fluorescent protein (GFP) was co-transfected with the reporter plasmids as a normalization plasmid enabling normalization of the signal to transfection level. To test the activation of NF-κB pathway, TNFα (in the range from 13 to 200 pg/ml) as a positive control or samples (50 µM) were incubated with the cells for 5 h. […] The fluorescence (488/513 nm) was determined using SpectraMax i3x Multi-Mode Microplate Reader (Molecular Devices, San Jose, California, USA). Subsequent quantification of luciferase activity was performed using the Bright-Glo™ Luciferase Assay System (Promega Corporation) according to the manufacturer’s instructions.

[4] = system: Chinese hamster lung and human colonic epithelial cells; parameters: method as in PMID 32461162, PMID 24239523; conditions: in vitro ref 3, 5; cited from earlier work
[5] = parameters: method as in PMID 32461162; conditions: cited from earlier work
[6] = system: NRF2 protein in THP-1 cells; conditions: 650 µM, 5 h ref 15; cited from earlier work
NF-κB signal pathway = NF-κB signal pathway activation, luciferase reporter in transfected HEK293; assay type: cell-based, human; conditions: HEK293, 100 µM (Table 1), 5 h
From the text: […]. HEK293 cells were transiently transfected with reporter plasmid pGL4.32 (luc2P/NF-κB-RE/Hygro, Promega Corporation, Madison, Wisconsin, USA) or pGL4.37 (luc2P/NRF2-ARE/Hygro) using FuGENE (Promega Corporation). Plasmid pEGFP-C1 carrying the gene for green fluorescent protein (GFP) was co-transfected with the reporter plasmids as a normalization plasmid enabling normalization of the signal to transfection level. […] To test the activation of NRF2-ARE pathway, tert-butyl hydroquinone (TBHQ, in the range from 4 to 63 µM) as a positive control or samples (50 µM) were incubated with the cells for 18 h. The fluorescence (488/513 nm) was determined using SpectraMax i3x Multi-Mode Microplate Reader (Molecular Devices, San Jose, California, USA). Subsequent quantification of luciferase activity was performed using the Bright-Glo™ Luciferase Assay System (Promega Corporation) according to the manufacturer’s instructions.

## CC(C=O)Cc1ccc(C(C)(C)C)cc1 (stereo not drawn) [Lilial, 3-(4-(tert-butyl)phenyl)-2-methylpropanal]
MCF7 cells
  Effect on cell viability: no negative effect
CHO-K1 cells; CHO-K1, 100 µM
  Genotoxicity result: Inconclusive
CHO-K1 cells; CHO-K1, 4h_S9
  MoA (mean fluorescence values over area of the nuclei): 1.10*
CHO-K1 cells; CHO-K1, 4 h, without S9
  MoA (mean fluorescence values over area of the nuclei): 0.52
CHO-K1 cells; CHO-K1, 24 h
  MoA (mean fluorescence values over area of the nuclei): 0.99
[1]; MCF7 in vitro ref 8
  Estrogenic activity (expression of transfected reporter and endogenous pS2 gene): very weak estrogenic activity
[1]; lilial 100 µM, estrogen 10 nM, unaffected control 1.8 doublings ref 8
  Cell doublings: 2.4 doublings
Mouse lymphoma cells
  Mouse lymphoma assay outcome: negative outcome
[2]
  Effect on complexes I and II of the electron transport chain: inhibit complexes I and II
NIH3T3 cells
  Effect on cell viability: no negative effect
[3]
  Genotoxic and mutagenic potential: No genotoxic and mutagenic potential
CHO-K1 cells (hprt gene)
  Mutagenicity result: Non mutagenic
CHO-K1 cells (hprt gene); listed as lilial
  Mutagenicity result: not mutagenic
CHO-K1 cells (hprt gene); Table 3, without activation, lilial 50 µM, EMS 240 µg/ml (2 mM), 4 h
  MF (/10^6) mutation frequency: 9 ± 4 /10^6
CHO-K1 cells (hprt gene); Table 4, With S9, lilial 500 µM, 3MC 2 µg/ml
  NMC (number of mutant colonies): 1 ± 1
NRF2-ARE signal pathway
  NRF2-ARE signal pathway activation result: Non activator
NRF2-ARE signal pathway; listed as lilial
  NRF2-ARE signal pathway activation result: neither the NF-kB (Fig. 7) nor NRF2 (Fig. 8) signalling pathway was activated
[4]
  Mutagenicity in mammalian cell gene mutation assay: not mutagenic
[5]; hydroalcoholic-based fragrances and deodorant/antiperspirant products ref 3
  Dermal absorption value: 13.5%
[5]; oil-in-water-based products ref 3
  Dermal absorption value: 8.9%
[5]; water-in-oil-based products ref 3
  Dermal absorption value: 10.5%
[6]
  Level of NRF2 protein: significant increase
NF-κB signal pathway
  NF-κB signal pathway activation result: Non activator
NF-κB signal pathway; listed as lilial
  NF-κB signal pathway activation result: neither the NF-kB (Fig. 7) nor NRF2 (Fig. 8) signalling pathway was activated
